US20200115417A1, “A CYCLIC PEPTIDE AND PHARMACEUTICAL COMPOSITION COMPRISING THE SAME FOR INHIBITING PROLIFERATION OF HEV” (priority 2018, published 2020)
“Also recorded” adds a separate entry of the source. Where no end group is shown, it is not given here.

Assays:
g-1 HEV = experiment: Release of g-1 HEV from infected ORF4-Huh7 cells; type: cell-based; conditions: g-1 HEV clinical isolate, 10 μM CP11 every alternate day for 6 days
Procedure: For infection studies, the HEV infection model was prepared by infecting 4×10^5 ORF4-Huh7 cells with 8×10^6 genome copies of the g-1 HEV clinical isolate for one hour, followed by three times washing of infected cells in PBS and maintenance in complete media for 5 days prior to treatment with CP11.
(§1) On 6th day post-electroporation/post-infection, HEV infection model was treated every alternate day with 10 μM of CP11 for 6 days followed by measurement of cell viability, quantification of replication of the viral genome and release of the progeny viruses.
(§2) For estimation of the amount of virus released to the culture medium, medium from the above samples were collected and clarified by centrifugation at 7197×g, 4° C. for 15 minutes. 8% PEG (polyethylene glycol) 6000 and 0.4 M NaCl (final concentration) was added to the clarified samples and the mixture was incubated at 0° C. for 16 hours, followed by centrifugation at 20,000×g for 30 minutes. The pellet was resuspended in PBS and RNA was isolated using QIAamp Viral RNA Mini kit. Intracellular RNA was isolated using TRI reagent (MRC, Ohio, USA), following manufactures protocol.

p6 HEV [1] = experiment: QRT-PCR of intracellular p6 HEV sense strand RNA; type: cell-based; conditions: 10 μM CP11 every alternate day for 6 days; Huh7 cells; normalized to GAPDH
Procedure: (§3) The genomic RNAs of p6 HEV and p6 HEV-Luc were synthesized in vitro and size/integrity was monitored by formaldehyde agarose gel electrophoresis. ORF4-Huh7 cell line were prepared as reported (48) and maintained in Dulbecco's modified eagle medium containing 10% fetal calf serum, 50 IU/ml penicillin and streptomycin in 5% CO2. 200 μg/ml hygromycin was added to the cells during routine maintenance. Cells were then electroporated with genomic RNAs of p6 HEV and p6 HEV-Luc in a 4 mm cuvette at 200 Volt, 950 μF and infinite resistance. Electroporated cells were maintained in complete media for 5 days prior to the treatment with CP11.
On 6th day post-electroporation/post-infection, HEV infection model was treated every alternate day with 10 μM of CP11 for 6 days followed by measurement of cell viability, quantification of replication of the viral genome and release of the progeny viruses. […]
For measuring levels of p6 HEV sense RNA and host GAPDH RNA, cDNA was synthesized using random hexamers and Superscript III reverse transcriptase. For subsequent quantitative real time, FP of sequence “[…]” (SEQ ID NO:3) and RP of sequence “accgggacagcgtgga” (SEQ ID NO:4) were used for p6 HEV sense and FP of sequence “[…]” (SEQ ID NO:5) and RP of sequence “[…]” (SEQ ID NO:6) were used for host GAPDH RNA.

p6 HEV [2] = experiment: ELISA of viral capsid protein ORF2 in viruses released to culture medium; type: cell-based; conditions: 10 μM CP11 treated samples; Huh7 cells
Procedure: as §2
An ELISA was standardized using purified recombinant ORF2 protein (112-608aa region) as the antigen and a rabbit polyclonal anti-ORF2 antibody, which was earlier generated and characterized in our laboratory (48). Specificity of the assay was monitored by including appropriate controls such as rabbit preimmune serum and competition with the peptide, which was used to generate the antibody. […]
For ELISA mediated quantification of p6 HEV present in the culture medium, PEG 6000 precipitated virus was resuspended in PBS and coated onto the ELISA plate overnight at 4° C. […]

ORF4 and ORF3 = experiment: In vitro His-pull down assay, ORF3-ORF4 interaction; type: binding, HEV; conditions: 1 μM in the reaction mix; western blot
Procedure: (§4) pGBKT7 RdRp, TSG101 and ORF4 plasmids, in which coding sequence for RdRp, TSG101 and ORF4 is cloned under the control of the T7 promoter along with a N-terminal myc epitope tag was used for in vitro production of HEV RdRp, ORF4 and human TSG101 proteins. A coupled in vitro transcription-translation kit (TNT T7 kit) was used, following manufactures guidelines (Promega, Wis., USA). Aliquots of the TNT expressed proteins were mixed with 2× Laemelli buffer [125 mM Tris (pH 6.8), 4% SDS, 20% glycerol, 100 mM DTT and 0.02% bromophenol blue], incubated at 950 C for 5 minutes, resolved by SDS PAGE and western blotted with anti-myc antibody to confirm protein expression.
An in vitro His-pull down assay was performed to monitor whether cyclic peptide inhibits the interaction between HEV ORF3 and human TSG101 proteins. His tagged ORF3 protein was purified from E. coli BL21 (DE3) following previously described protocols (50). […]
Empty pGBKT7 vector was translated in parallel (denoted as mock lysate) to rule out non-specific cross reactivity of myc antibody with proteins present in the rabbit reticulocyte lysate. […] Two non-specific bands were detected in all samples (denoted by *). […]

p6 HEV-Luc replicon = p6 HEV-Luc replicon Gaussia luciferase assay; type: cell-based; conditions: 10 μM CP11 for 48 hours; Huh7 cells; normalized to cell viability
Procedure: Possible effect of CP11 on HEV replication was investigated using a Huh7 cell-based model of p6 HEV replicon expressing luciferase. Luciferase assay was done through well-known methods. Briefly, Huh7 cells were electroporated with in vitro synthesized capped genomic RNA of p6 HEV-Luc and maintained in complete media for 5 days prior to the treatment with the cyclic peptide. 6th day post electroporation, 10 μM CP11 was added for 48 hours. Gaussia luciferase activity in the culture media was measured using Renilla luciferase assay kit (Promega, Wisconsin, USA). Luciferase values were normalized to that of the cell viability assay, and plotted as mean±SEM.

[3] = target: T1, HEV ORF3 and human TSG101 proteins (Homo sapiens, UniProt Q99816); experiment: In vitro His-pull down assay, ORF3-TSG101 interaction; type: binding; conditions: for interaction between ORF3 and TSG101: western blot
T1 construct: made in house; host or cells: ORF3-his: E. coli BL21 (DE3); TSG101-myc: coupled in vitro transcription-translation (TNT T7 kit, Promega; rabbit reticulocyte lysate) from pGBKT7 TSG101
T1 sequence (Q99816 1-390): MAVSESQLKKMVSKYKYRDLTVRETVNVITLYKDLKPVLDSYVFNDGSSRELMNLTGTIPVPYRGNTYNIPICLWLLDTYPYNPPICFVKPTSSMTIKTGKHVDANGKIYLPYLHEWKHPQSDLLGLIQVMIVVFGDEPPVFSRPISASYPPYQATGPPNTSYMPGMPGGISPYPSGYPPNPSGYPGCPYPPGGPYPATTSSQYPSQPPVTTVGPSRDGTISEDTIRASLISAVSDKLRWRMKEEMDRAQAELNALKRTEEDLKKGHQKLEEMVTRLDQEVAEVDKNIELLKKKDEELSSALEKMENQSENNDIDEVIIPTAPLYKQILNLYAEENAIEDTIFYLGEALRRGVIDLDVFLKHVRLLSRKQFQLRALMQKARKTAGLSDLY
Procedure: as §4
An in vitro His-pull down assay was performed to monitor whether cyclic peptide inhibits the interaction between HEV ORF3 and human TSG101 proteins. His tagged ORF3 protein was purified from E. coli BL21 (DE3) following previously described protocols (50). Ni-NTA super flow agarose (Thermo Scientific, Massachusetts, USA) bound ORF3-his was equally aliquoted into separate 1.5 ml tubes followed by addition of TNT generated mock lysate, RdRp-myc lysate, TSG101-myc lysate, ORF4-myc lysate and CP11 (1 μM or 10 μM) in the required combinations in phosphate buffered saline (PBS; 10 mM PO43-, 137 mM NaCl, 2.7 mM KCl) supplemented with protease inhibitor cocktail. Samples were incubated on a flip flop shaker at 4° C. for 1 hour, followed by three washes in PBS. 30p1 of 2× Laemelli buffer was added to the beads and incubated at 950 C for 5 minutes. Aliquots of the eluted proteins were resolved by SDS-PAGE and western blotting was done using anti-myc and anti-ORF3 antibodies.
Empty pGBKT7 vector was translated in parallel (denoted as mock lysate) to rule out non-specific cross reactivity of myc antibody with proteins present in the rabbit reticulocyte lysate. RdRp, TSG101 and ORF4 plasmid containing samples produced bands corresponding to their expected size (FIG. 1B). Two non-specific bands were detected in all samples (denoted by *). […]

[4] = system: p6 HEV expressing Huh7 cells; experiment: MTT cell viability assay; type: cell-based, human; conditions: 10 μM CP11 every alternate day for 6 days
Procedure: as §3, §1
Cell viability was measured by MTT [3-(4,5-dimethyl-2-thiazolyl)-2,5-diphenyl-2H-tetrazolium bromide] assay using cell titer 96 non-radioactive cell proliferation assay kit.

**Q.** Which “block of release of g-1 HEV” value (g-1 HEV) does the source give for “CP11: Peptide 11 (CGWIYWNV; SEQ ID NO:1), cyclized and conjugated with the linear Tat peptide (CGRKKRRQRRRPPQ; SEQ ID NO:2) (also: peptide 11 cyclized, mode not given here, conjugated to linear Tat peptide, linkage not given here)” here?
**A.** Its value is “approximately 90%”.

**Q.** What about the “viral sense strand RNA level in cells” value (p6 HEV [1]) of the same substance?
**A.** Its value is “significant increase”.

**Q.** And the “ORF2 level in PEG 6000 precipitated virus from culture medium” value (p6 HEV [2])?
**A.** The value was “significantly less”.

**Q.** And the “interaction between ORF4 and ORF3” value (ORF4 and ORF3)?
**A.** Its value is “remains unaffected”.

**Q.** What about the “luciferase activity (viral replication/RNA stability)” value (p6 HEV-Luc replicon) of the same substance?
**A.** The value was “no effect”.

**Q.** What about the “interaction between ORF3 and TSG101” value ([3]; 1 μM in the reaction mix) of the same substance?
**A.** Its value is “significantly reduced”.

**Q.** And the “interaction between ORF3 and TSG101” value ([3]; 10 μM of CP11 in the reaction mixture)?
**A.** The value was “completely inhibited”.

**Q.** What about the “inhibition of the interaction between ORF3 and TSG101 proteins, compared with other peptides” value ([3]; out of several cyclic peptides screened) of the same substance?
**A.** The value was “most efficiently”.

**Q.** And the “cytotoxic effect (cell viability, MTT)” value [4]?
**A.** The value was “ruled out the possible cytotoxic effect; also recorded: without showing any cytotoxicity”.
